The record followed here is ChEMBL document CHEMBL4837269, “Identification of 6-Hydroxypyrimidin-4(1H)-one-3-carboxamides as Potent and Orally Active APJ Receptor Agonists” (ACS Med Chem Lett, 2021).

The target of data set [1] is T1, Apelin receptor (Rattus norvegicus, UniProt Q9JHG3).
T1 sequence (Q9JHG3 whole entry): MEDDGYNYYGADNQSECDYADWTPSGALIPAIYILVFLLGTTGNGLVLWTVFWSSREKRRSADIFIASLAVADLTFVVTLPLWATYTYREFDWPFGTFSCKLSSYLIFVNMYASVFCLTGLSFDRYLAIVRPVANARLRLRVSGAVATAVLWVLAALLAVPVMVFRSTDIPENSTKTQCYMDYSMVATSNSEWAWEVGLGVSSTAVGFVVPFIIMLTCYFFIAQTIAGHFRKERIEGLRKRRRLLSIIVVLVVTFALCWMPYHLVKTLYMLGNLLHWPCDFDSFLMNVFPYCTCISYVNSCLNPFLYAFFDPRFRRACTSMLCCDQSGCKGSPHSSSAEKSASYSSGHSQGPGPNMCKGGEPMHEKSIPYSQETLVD
Put plainly: Agonist activity at rat APJ receptor expressed in HEK293T cells assessed as compound stimulated inhibition of forskolin stimulated cAMP production incubated for 30 mins by HTRF assay. Format: functional, cell-based. On the technique in general: cAMP levels reflect the balance of adenylyl cyclase and phosphodiesterase activity.

Data set [2] concerns the target T2, Apelin receptor (Homo sapiens, UniProt P35414).
T2 sequence (P35414 whole entry): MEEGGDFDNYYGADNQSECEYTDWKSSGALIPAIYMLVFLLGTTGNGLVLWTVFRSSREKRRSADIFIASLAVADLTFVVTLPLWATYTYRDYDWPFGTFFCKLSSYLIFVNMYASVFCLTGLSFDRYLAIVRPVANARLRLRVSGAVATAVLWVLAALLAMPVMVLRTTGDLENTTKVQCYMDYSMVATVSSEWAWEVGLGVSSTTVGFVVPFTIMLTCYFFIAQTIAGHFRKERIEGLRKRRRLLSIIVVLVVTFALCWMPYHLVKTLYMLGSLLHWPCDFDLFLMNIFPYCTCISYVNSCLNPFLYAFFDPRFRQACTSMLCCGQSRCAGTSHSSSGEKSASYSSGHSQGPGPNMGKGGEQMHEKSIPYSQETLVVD
Put plainly: Agonist activity at human APJ receptor expressed in HEK293T cells assessed as compound stimulated inhibition of forskolin stimulated cAMP production incubated for 30 mins by HTRF assay. Format: functional, cell-based.

The nature of data set [3]: Metabolic stability in rat liver microsomes assessed as parent compound remaining measured after 10 mins in presence of NADPH. Format: ADME, Microsome. Particulars: for remaining at 10 min: liver microsomes, read-out: Stabilty; for Stabilty: microsomes, 10 min. On the technique in general: Microsomes from liver hold many membrane-bound enzymes, among them those of drug oxidation.

The nature of data set [4]: Permeability of the compound at pH 5.5 by PAMPA assay. Particulars: for Papp: read-out: permeability. Format: ADME. For orientation: PAMPA measures passive passage across an artificial lipid membrane.
The nature of data set [5]: Metabolic stability in human liver microsomes assessed as parent compound remaining measured after 10 mins in presence of NADPH. Format: ADME, Microsome. Particulars: for remaining at 10 min: liver microsomes, read-out: Stabilty; for percent parent compound remaining: microsomes, 10 min.
A short description of data set [6]: Permeability of the compound at pH 7.4 by PAMPA assay. Particulars: for Papp: read-out: permeability. The class given is ADME.
A short description of data set [7]: Protein binding in Sprague-Dawley rat plasma. Format: ADME, cell-free. The note with it: read-out: PPB (converted).
Data set [8] can be described thus: Cmax in Sprague-Dawley rat at 1 mg/kg, po via gavage measured after 48 hrs by LC/MS/MS analysis. Details: route oral, time 48 hrs, dose 1 mg/kg. The class given is ADME, organism-based. Particulars: in vivo.
Data set [9] in a line: Half life in Sprague-Dawley rat at 1 mg/kg, po via gavage measured after 48 hrs by LC/MS/MS analysis. The class given is ADME, organism-based. The note with it: in vivo.
For data set [10], the system named is Rattus norvegicus. Put plainly: Hemodynamic activity in isoflurane-anesthetized Sprague-Dawley rat model of acute pressure-volume loop assessed as change in stroke volume at 10 microg/kg/min administered as iv infusion for 15 mins (reference value: -0.6 %). The class given is functional. Particulars: dose 10 µg/kg/min, 0.25 h.
Data set [11] is described as follows: Free drug concentration in Sprague-Dawley rat plasma. Format: ADME, cell-free.
Data set [12] deals with Rattus norvegicus. As to the kind of experiment: Hemodynamic activity in isoflurane-anesthetized Sprague-Dawley rat model of acute pressure-volume loop assessed as change in cardiac output at 10 microg/kg/min administered as iv infusion for 15 mins (reference value: 2.3 +/- 2.1 %). Format: functional. Particulars: dose 10 µg/kg/min, 0.25 h.
The subject of data set [13] is Rattus norvegicus. Put plainly: Hemodynamic activity in isoflurane-anesthetized Sprague-Dawley rat model of acute pressure-volume loop assessed as change in heart rate at 10 microg/kg/min administered as iv infusion for 15 mins (reference value: 3 +/- 1.6 %). Format: functional. The note with it: dose 10 µg/kg/min, 0.25 h.
The subject of data set [14] is Rattus norvegicus. As to the kind of experiment: Hemodynamic activity in isoflurane-anesthetized Sprague-Dawley rat model of acute pressure-volume loop assessed as change in dp/dT at 10 microg/kg/min administered as iv infusion for 15 mins (reference value: 3.3 +/- […]). Particulars: dose 10 µg/kg/min, 0.25 h. Format: functional.
The subject of data set [15] is Rattus norvegicus. Put plainly: Hemodynamic activity in isoflurane-anesthetized Sprague-Dawley rat model of acute pressure-volume loop assessed as change in blood pressure at 10 microg/kg/min administered as iv infusion for 15 mins (reference value: -0.2 %). Particulars: dose 10 µg/kg/min, 0.25 h. Format: functional.
Data set [16] can be described thus: AUC(0 to 24 hrs) in Sprague-Dawley rat at 1 mg/kg, po via gavage measured after 48 hrs by LC/MS/MS analysis. Format: ADME, organism-based. The note with it: in vivo. Set-up: route oral, dose 1 mg/kg, time 48 hrs.

Turning to `CCCCc1[nH]c(=O)c(C(=O)N(CCC)Cc2ccccc2)c(O)c1-c1c(OC)cccc1OC`, the EC50 (commonly the concentration that produces a half-maximal response) in [1] came to 150 nM; in [2], 120 nM.

For `CCCCc1[nH]c(=O)c(C(=O)NCc2ccccc2)c(O)c1-c1c(OC)cccc1OC`, the figures for the EC50 in [1] and in data set [2] were 4800 nM and 1100 nM, respectively.

With `CCCCc1[nH]c(=O)c(C(=O)N2CC[C@H](c3ccccc3)C2)c(O)c1-c1c(OC)cccc1OC`, the results for the remaining at 10 min in data set [3] and in [5] were 73% and 99%, respectively. The Papp in [4] amounted to 84 ×10⁻⁶ cm/s; in [6], 1.8 ×10⁻⁶ cm/s. Moreover, the results for the EC50 in data set [1] and in data set [2] were 1.8 nM and 1 nM, respectively.

For the compound `CCCCc1nc(=O)c(C(=O)N2CC[C@@H](c3ccc(Cl)cn3)C2)c(O)n1-c1c(OC)cccc1OC`, the fraction unbound in data set [7] is 0.022. Moreover, the remaining at 10 min in data set [3] came to 43%; in [5], 100%. The concentration giving a half-maximal response (EC50) in data set [1] amounted to 0.035 nM; in [2] it was 0.027 nM. For the same compound, the Cmax (usually the highest concentration seen after dosing) in data set [8] came out at 3.2 µM. Also, the half-life (usually how long it takes for the measured level to halve) in [9] was 3.2 h. Further, the Activity is 67% in [10]; 11.7% in data set [12]; 4.6% in [13]; 9.1% in [14]; -2.8% in [15]. In addition, in data set [11], the “Cp(f)” value was determined as 0.0064 µM. In addition, the AUC(0-t) (commonly the area under the concentration-time curve up to a stated or last time point) at 48 h in data set [16] amounted to 1.9 µM·h.

In the case of `CCCCc1[nH]c(=O)c(C(=O)N(C)C)c(O)c1-c1c(OC)cccc1OC`, the figures for the half-maximal effective concentration (EC50) in data set [1] and in data set [2] were 1200 nM and 1100 nM, respectively.

In the case of `CCCCc1nc(=O)c(C(=O)N2CC[C@H](c3ccccc3)C2)c(O)n1-c1c(OC)cccc1OC`, the results for the remaining at 10 min in [3] and in data set [5] were 25% and 85%, respectively. The Papp in data set [4] turned out to be 52.3 ×10⁻⁶ cm/s; in data set [6] it was 1.2 ×10⁻⁶ cm/s. In addition, the EC50 in [1] was 0.27 nM.

For the compound `CCCCc1[nH]c(=O)c(C(=O)N(C)CCc2ccc(Cl)cc2)c(O)c1-c1c(OC)cccc1OC`, the figures for the EC50 in [1] and in data set [2] were 10 nM and 9.3 nM, respectively.

As to `CCOCc1[nH]c(=O)c(-c2nnc(Cc3ccc(C)cn3)o2)c(O)c1-c1c(OC)cccc1OC`, the EC50 in data set [1] was 0.024 nM; in [2] it was 0.023 nM.

As to `CCCCc1[nH]c(=O)c(C(=O)NCC)c(O)c1-c1c(OC)cccc1OC`, the EC50 in data set [1] and in data set [2] was > 30000 nM each time.

For `CCCCc1nc(=O)c(C(=O)N2CC[C@H](c3ccc(Cl)cn3)C2)c(O)n1-c1c(OC)cccc1OC`, the remaining at 10 min in data set [3] worked out at 35%; in data set [5], 100%. For the same compound, the results for the EC50 in data set [1] and in data set [2] were 0.063 nM and 0.032 nM, respectively.

As to `CCCCc1[nH]c(=O)c(C(=O)N2CC[C@@H](c3ccccc3)C2)c(O)c1-c1c(OC)cccc1OC`, the remaining at 10 min came to 69% in data set [3] and 100% in data set [5]. Moreover, the Papp in data set [4] was 63 ×10⁻⁶ cm/s; in data set [6], 7.3 ×10⁻⁶ cm/s. Besides, the concentration for a half-maximal effect (EC50) was 3.1 nM in [1] and 1.8 nM in data set [2].

In the case of `CCOCc1nc(=O)c(C(=O)N2CC[C@H](c3ccccc3)C2)c(O)n1-c1c(OC)cccc1OC`, the Papp in [4] was 6.4 ×10⁻⁶ cm/s; in [6] it was 0.3 ×10⁻⁶ cm/s. Moreover, the EC50 in [1] was 0.61 nM; in data set [2] it was 0.44 nM.

In the case of `CCCCc1nc(=O)c(C(=O)N2CC[C@@H](c3ccccc3)C2)c(O)n1-c1c(OC)cccc1OC`, the figures for the remaining at 10 min in data set [3] and in [5] were 26% and 97%, respectively. In addition, the Papp was 32.5 ×10⁻⁶ cm/s in [4] and 2.3 ×10⁻⁶ cm/s in data set [6]. Moreover, in data set [1], the EC50 was 0.34 nM.

As for `CCCCc1nc(=O)c(C(=O)N2CCC(c3ccc(Cl)cc3)C2)c(O)n1-c1c(OC)cccc1OC` (stereo in doubt; 10a), the remaining at 10 min was 7% in data set [3] and 97% in [5]. In addition, the figures for the Papp in data set [4] and in [6] were 30 ×10⁻⁶ cm/s and 7.4 ×10⁻⁶ cm/s, respectively. Besides, the EC50 turned out to be 0.17 nM in data set [1] and 0.15 nM in data set [2].

Turning to `CCCCc1nc(=O)c(C(=O)N2CCC(c3ccc(Cl)cc3)C2)c(O)n1-c1c(OC)cccc1OC` (stereo in doubt; 10b), the Stabilty in [3] was 8%. In addition, the permeability in data set [4] came to 38 ×10⁻⁶ cm/s; in [6], 6.3 ×10⁻⁶ cm/s. Besides, the EC50 in [1] was found to be 0.31 nM; in data set [2], 0.24 nM. Also, the “percent parent compound remaining” value in data set [5] turned out to be 90%.

Turning to `CCCCc1nc(=O)c(C(=O)N2CCC(c3ccccn3)C2)c(O)n1-c1c(OC)cccc1OC` (stereo in doubt; 11a), the remaining at 10 min in data set [3] was 68%; in [5], 82%. Besides, the Papp in [4] was 4.2 ×10⁻⁶ cm/s. Besides, the results for the EC50 in data set [1] and in data set [2] were 0.37 nM and 0.17 nM, respectively.

Turning to `CCCCc1nc(=O)c(C(=O)N2CCC(c3ccccn3)C2)c(O)n1-c1c(OC)cccc1OC` (stereo in doubt; 11b), the Stabilty in [3] worked out at 62%. The permeability in data set [4] was found to be 7.8 ×10⁻⁶ cm/s. The values for the EC50 in [1] and in data set [2] were 0.15 nM and 0.12 nM, respectively. For the same compound, the Papp in data set [6] was determined as 0.6 ×10⁻⁶ cm/s.

As to `CCCCc1nc(=O)c(C(=O)N2CCC(c3cccnc3)C2)c(O)n1-c1c(OC)cccc1OC` (stereo in doubt; 12a), the results for the remaining at 10 min in [3] and in data set [5] were 65% and 82%, respectively. Besides, the Papp in [4] came out at 2.3 ×10⁻⁶ cm/s. In addition, the concentration giving a half-maximal response (EC50) was 0.33 nM in data set [1] and 0.29 nM in [2].

As for `CCCCc1nc(=O)c(C(=O)N2CCC(c3cccnc3)C2)c(O)n1-c1c(OC)cccc1OC` (stereo in doubt; 12b), the Stabilty in data set [3] worked out at 70%. The compound further had a permeability in [4] of 2.1 ×10⁻⁶ cm/s. Besides, the EC50 is 0.4 nM in data set [1] and 0.3 nM in [2]. Also, in data set [5], the “percent parent compound remaining” value was 89%. The Papp in [6] was 0.1 ×10⁻⁶ cm/s.

As for `CCCCc1nc(=O)c(C(=O)N2CCC(c3ccncc3)C2)c(O)n1-c1c(OC)cccc1OC` (stereo in doubt; 13a), the remaining at 10 min in [3] is 83%; in [5], 93%. In addition, the permeability in data set [4] stood at 0.9 ×10⁻⁶ cm/s. The values for the EC50 in [1] and in data set [2] were 2.1 nM and 1.5 nM, respectively. Further, in data set [6], the Papp was 0.3 ×10⁻⁶ cm/s.

As for `CCCCc1nc(=O)c(C(=O)N2CCC(c3ccncc3)C2)c(O)n1-c1c(OC)cccc1OC` (stereo in doubt; 13b), the Stabilty in data set [3] came to 80%. Further, the permeability came to 1.9 ×10⁻⁶ cm/s in [4] and 0.5 ×10⁻⁶ cm/s in data set [6]. Besides, the EC50 in [1] was determined as 4 nM; in data set [2], 2.7 nM. Also, the “percent parent compound remaining” value in data set [5] worked out at 90%.
